Data reported in patent US10457707B2, “Substituted urea depsipeptide analogs as activators of the CLPP endopeptidase” (priority 2015, dated 2019).
Converted amounts (≈) assume the structure as drawn. Like-named read-outs stand apart in the source and are kept apart here. *1 amine or outer side, *2 acyl side, *3 side chain or, on linkers, in order; H or OH if unused. Where a SMILES comes first, the peptide text is derived from it. Bridges are numbered along the chain shown (N, C = ends). [ ]: non-standard residue; d: D form. The star is where a group is joined. ξ: configuration not given here. NH(1,3-benzodioxol-5-yl) = c1cc2c(cc1N*)OCO2; Phe(3,5-F2) = N[C@@H](Cc1cc(F)cc(F)c1)C(=O)O; NH(1-Me-indolin-5-yl) = CN1CCc2cc(N*)ccc21; Morpholine(3S-CO) = O=C(O)[C@@H]1COCCN1; NH(4-Cl-2-F-phenyl) = Fc1cc(Cl)ccc1N*; Pro(4R-Me) = C[C@H]1CN[C@H](C(=O)O)C1; NH(3,4-Me2-phenyl) = Cc1ccc(N*)cc1C; Hyp = O=C(O)[C@@H]1C[C@@H](O)CN1; NMeT = CN[C@H](C(=O)O)[C@@H](C)O; Heptenoyl(2E) = CCCC/C=C/C(=O)*; ξNMeThr = CNC(C(=O)O)[C@@H](C)O; aThr = C[C@H](O)[C@H](N)C(=O)O; Pip = O=C(O)[C@@H]1CCCCN1; X1 = N#Cc1cc(N*)ccc1F; CO = O=C([*:1])[*:2]

Tests used:
[1] = system: Staphylococcus aureus, ATCC 29213; experiment: Minimal inhibitory concentration assay (microbroth dilution); assay type: cell-based; conditions: ATCC29213, read-out: Minimal Inhibitory Concentrations S. aureus ATCC 29213
Procedure, shortened: (§1)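 Broth microdilution per CLSI M7-A7: two-fold serial dilutions of compound in broth (top final concentration 200 μM) were inoculated with ~10^5 cfu/mL bacteria and incubated aerobically overnight at 37 °C. MIC was read visually as the lowest concentration preventing growth.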

[2] = system: Staphylococcus aureus, NRS70; experiment: as above; assay type: cell-based
Procedure, shortened: as §1

[3] = system: Bacillus subtilis, ATCC 23857; experiment: as above; assay type: cell-based
Procedure, shortened: as §1

Sa-ClpP = molecular target: T1, Sa-ClpP (Staphylococcus aureus, UniProt Q2G036); experiment: ADEP displacement fluorescence polarization assay (FP probe ADEP 2591); assay type: binding
T1 construct: made in house; host or cells: E. coli BL21(DE3)
T1 sequence (Q2G036 1-195): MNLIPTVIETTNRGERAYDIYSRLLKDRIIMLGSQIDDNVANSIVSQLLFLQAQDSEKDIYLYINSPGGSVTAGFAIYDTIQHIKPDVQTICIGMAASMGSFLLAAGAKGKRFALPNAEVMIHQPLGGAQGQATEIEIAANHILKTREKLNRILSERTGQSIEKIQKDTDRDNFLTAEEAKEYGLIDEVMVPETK
Procedure, shortened: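 Master mix of 15 μM S. aureus ClpP with 50 nM TAMRA-labelled ADEP 2591 probe in Tris-HCl pH 8.0, 2% DMSO, was pre-equilibrated 1 h, then incubated with compound 120 min at room temperature. Polarization (ex 530, em 579 nm) was normalized to 200 μM ADEP 2378 and DMSO controls; four-parameter fits, triplicate.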

[4] = system: Streptococcus pyogenes, ATCC 700294; experiment: Minimal inhibitory concentration assay (microbroth dilution); assay type: cell-based
Procedure, shortened: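 CLSI broth microdilution: two-fold serial compound dilutions in appropriate broth, inoculated and incubated aerobically overnight at 37° C. MIC read visually as lowest concentration preventing bacterial growth.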

[5] = Staphylococcus aureus, NRS70; read-out: Minimal Inhibitory Concentrations S. aureus NRS70
[6] = Bacillus subtilis, ATCC23857; read-out: Minimal Inhibitory Concentrations B. subtilis ATCC 23857
[7] = Streptococcus pyogenes, ATCC700294; read-out: Minimal Inhibitory Concentrations S. pyogenes ATCC 700294
[8] = Staphylococcus aureus, NRS70, read-out: Minimal Inhibitory Concentrations S. aureus NRS70
[9] = Bacillus subtilis, ATCC23857, read-out: Minimal Inhibitory Concentrations B. subtilis ATCC 23857
[10] = Streptococcus pyogenes, ATCC700294, read-out: Minimal Inhibitory Concentrations S. pyogenes ATCC 700294

SMILES | MIC [1] [µM] | MIC [2, 5] [µM] | MIC [3, 6] [µM] | IC50 (Sa-ClpP) [µM] | MIC [4, 7] [µM] | MIC [2, 8] [µM] | MIC [3, 9] [µM] | MIC [4, 10] [µM]
C[C@@H]1C[C@H]2C(=O)OC[C@H](NC(=O)[C@H](Cc3cc(F)cc(F)c3)NC(=O)Nc3ccc4c(c3)OCO4)C(=O)N3C[C@H](O)C[C@H]3C(=O)N3CCOC[C@H]3C(=O)N[C@@H](C)C(=O)N2C1 [Compound 318, (S)-2-(3-(benzo[d][1,3]dioxol-5-yl)ureido)-3-(3,5-difluorophenyl)-N-((6aS,8R,12S,15aS,17R,21S,23aS)-8-hydroxy-17,21-dimethyl-6,11,15,20,23-pentaoxooctadecahydro-6H,11H,15H-[1,4]oxazino[3,4-i]dipyrrolo[2,1-c:2′,1′-l][1]oxa[4,7,10,13]tetraazacyclo-hexadecin-12-yl)propanamide] ({NH(1,3-benzodioxol-5-yl)-CO}-[Phe(3,5-F2)]S[Hyp][Morpholine(3S-CO)]A[Pro(4R-Me)]; ester 2-C) | 20 (≈ 16.8 µg/mL) | 20 (≈ 16.8 µg/mL) | > 20 | 6.54 ± 0.5 | 0.625 (≈ 0.526 µg/mL) |  |  | 
C[C@@H]1C[C@H]2C(=O)O[C@@H](C)[C@H](NC(=O)[C@H](Cc3cc(F)cc(F)c3)NC(=O)Nc3ccc(F)c(C#N)c3)C(=O)N3CCC[C@H]3C(=O)N3CCCC[C@H]3C(=O)N[C@@H](C)C(=O)N2C1 [Compound 324, (S)-2-(3-(3-cyano-4-fluorophenyl)ureido)-3-(3,5-difluorophenyl)-N-((2R,6S,8aS,14aS,20S,21S,23aS)-2,6,21-trimethyl-5,8,14,19,23-pentaoxooctadecahydro-1H,5H,14H,19H-pyrido[2,1-i]dipyrrolo[2,1-c:2′,1′-l][1]oxa[4,7,10,13]tetraazacyclo-hexadecin-20-yl)propanamide] ({X1-CO}-[Phe(3,5-F2)][aThr]P[Pip]A[Pro(4R-Me)]; ester 2-C) | 0.313 (≈ 0.262 µg/mL) | 0.313 (≈ 0.262 µg/mL) | 0.625 (≈ 0.523 µg/mL) | 7.93 ± 0.3 | 1.25 (≈ 1.05 µg/mL) |  |  | 
C[C@@H]1C[C@H]2C(=O)OC[C@H](NC(=O)[C@H](Cc3cc(F)cc(F)c3)NC(=O)Nc3ccc4c(c3)OCO4)C(=O)N3CCC[C@H]3C(=O)N3CCCC[C@H]3C(=O)N[C@@H](C)C(=O)N2C1 [Compound 195, (S)-2-(3-(benzo[d][1,3]dioxol-5-yl)ureido)-3-(3,5-difluorophenyl)-N-((2R,6S,8aS,14aS,20S,23aS)-2,6-dimethyl-5,8,14,19,23-pentaoxooctadecahydro-1H,5H,14H,19H-pyrido[2,1-i]dipyrrolo[2,1-c:2′,1′-l][1]oxa[4,7,10,13]tetraazacyclohexadecin-20-yl)propanamide] | 0.6 (≈ 0.494 µg/mL) | 0.6 (≈ 0.494 µg/mL) | 0.3 (≈ 0.247 µg/mL) | 5.8 ± 0.2 | 0.3 (≈ 0.247 µg/mL) |  |  | 
C[C@@H]1C[C@H]2C(=O)OC[C@H](NC(=O)[C@H](Cc3cc(F)cc(F)c3)NC(=O)Nc3ccc4c(c3)OCO4)C(=O)N3C[C@H](O)C[C@H]3C(=O)N3CCCCC3C(=O)N[C@@H](C)C(=O)N2C1 (stereo partly drawn) [Compound 325, (S)-2-(3-(benzo[d][1,3]dioxol-5-yl)ureido)-3-(3,5-difluorophenyl)-N-((2R,6S,8aR,14aS,16R,20S,23aS)-16-hydroxy-2,6-dimethyl-5,8,14,19,23-pentaoxooctadecahydro-1H,5H,14H,19H-pyrido[2,1-i]dipyrrolo[2,1-c:2′,1′-l][1]oxa[4,7,10,13]tetraazacyclo-hexadecin-20-yl)propanamide] | 1.25 (≈ 1.05 µg/mL) | 1.25 (≈ 1.05 µg/mL) | 2.5 (≈ 2.1 µg/mL) | 4.27 ± 0.2 | 0.156 (≈ 0.131 µg/mL) |  |  | 
C[C@@H]1C[C@H]2C(=O)O[C@@H](C)[C@H](NC(=O)[C@H](Cc3cc(F)cc(F)c3)NC(=O)Nc3ccc(Cl)cc3F)C(=O)N3C[C@H](O)C[C@H]3C(=O)N3CCOC[C@H]3C(=O)N[C@@H](C)C(=O)N2C1 [Compound 316, (S)-2-(3-(4-chloro-2-fluorophenyl)ureido)-3-(3,5-difluorophenyl)-N-((6aS,8R,12S,13S,15aS,17R,21S,23aS)-8-hydroxy-13,17,21-trimethyl-6,11,15,20,23-pentaoxooctadecahydro-6H,11H,15H-[1,4]oxazino[3,4-i]dipyrrolo[2,1-c:2′,1′-l][1]oxa[4,7,10,13]tetraazacyclo-hexadecin-12-yl)propanamide] ({NH(4-Cl-2-F-phenyl)-CO}-[Phe(3,5-F2)][aThr][Hyp][Morpholine(3S-CO)]A[Pro(4R-Me)]; ester 2-C) | 0.078 (≈ 0.0674 µg/mL) | 0.078 (≈ 0.0674 µg/mL) | 0.313 (≈ 0.271 µg/mL) | 6.9 ± 0.3 | < 0.02 |  |  | 
Cc1ccc(NC(=O)N[C@@H](Cc2cc(F)cc(F)c2)C(=O)N[C@@H]2C(=O)N3C[C@H](O)C[C@H]3C(=O)N3CCCC[C@H]3C(=O)N[C@@H](C)C(=O)N3C[C@H](C)C[C@H]3C(=O)O[C@H]2C)cc1C [Compound 212, (S)-3-(3,5-difluorophenyl)-2-(3-(3,4-dimethylphenyl)ureido)-N-((2R,6S,8aS,14aS,16R,20S,21S,23aS)-16-hydroxy-2,6,21-trimethyl-5,8,14,19,23-pentaoxooctadecahydro-1H,5H,14H,19H-pyrido[2,1-i]dipyrrolo[2,1-c:2′,1′-l][1]oxa[4,7,10,13]tetraazacyclohexadecin-20-yl)propanamide] ({NH(3,4-Me2-phenyl)-CO}-[Phe(3,5-F2)][aThr][Hyp][Pip]A[Pro(4R-Me)]; ester 2-C) | 0.005 (≈ 0.00419 µg/mL) |  |  | 6.9 ± 0.3 |  | 0.002 (≈ 0.00168 µg/mL) | < 0.2 | < 0.2
CCCC/C=C/C(=O)N[C@@H](Cc1cc(F)cc(F)c1)C(=O)N[C@@H]1C(=O)N2CCC[C@H]2C(=O)N(C)[C@@H]([C@@H](C)O)C(=O)N[C@@H](C)C(=O)N2C[C@H](C)C[C@H]2C(=O)O[C@H]1C [Compound 308, (E)-N—((S)-3-(3,5-difluorophenyl)-1-(((2R,6S,9S,11aS,17S,18S,20aS)-9-((R)-1-hydroxyethyl)-2,6,10,18-tetramethyl-5,8,11,16,20-pentaoxohexadecahydro-1H,5H,16H-dipyrrolo[2,1-c:2′,1′-l][1]oxa[4,7,10,13]tetraazacyclohexadecin-17-yl)amino)-1-oxopropan-2-yl)hept-2-enamide] ({Heptenoyl(2E)}-[Phe(3,5-F2)][aThr]P[NMeT]A[Pro(4R-Me)]; ester 2-C) | 0.039 (≈ 0.0308 µg/mL) | 0.039 (≈ 0.0308 µg/mL) | < 0.02 | 4.4 ± 0.3 | < 0.02 |  |  | 
CCCC/C=C/C(=O)N[C@@H](Cc1cc(F)cc(F)c1)C(=O)N[C@@H]1C(=O)N2C[C@H](O)C[C@H]2C(=O)N2CCOC[C@H]2C(=O)N[C@@H](C)C(=O)N2C[C@H](C)C[C@H]2C(=O)O[C@H]1C [Compound 309, (E)-N—((S)-3-(3,5-difluorophenyl)-1-(((6aS,8R,12S,13S,15aS,17R,21S,23aS)-8-hydroxy-13,17,21-trimethyl-6,11,15,20,23-pentaoxooctadecahydro-6H,11H,15H-[1,4]oxazino[3,4-i]dipyrrolo[2,1-c:2′,1′-l][1]oxa[4,7,10,13]tetraazacyclohexadecin-12-yl)amino)-1-oxopropan-2-yl)hept-2-enamide] ({Heptenoyl(2E)}-[Phe(3,5-F2)][aThr][Hyp][Morpholine(3S-CO)]A[Pro(4R-Me)]; ester 2-C) | 0.156 (≈ 0.125 µg/mL) | 0.156 (≈ 0.125 µg/mL) | 0.156 (≈ 0.125 µg/mL) | 7.2 ± 0.4 | < 0.02 |  |  | 
C[C@@H]1C[C@H]2C(=O)O[C@@H](C)[C@H](NC(=O)[C@H](Cc3cc(F)cc(F)c3)NC(=O)Nc3ccc4c(c3)CCN4C)C(=O)N3CCC[C@H]3C(=O)N3CCCC[C@H]3C(=O)N[C@@H](C)C(=O)N2C1 [Compound 310, (S)-3-(3,5-difluorophenyl)-2-(3-(1-methylindolin-5-yl)ureido)-N-((2R,6S,8aS,14aS,20S,21S,23aS)-2,6,21-trimethyl-5,8,14,19,23-pentaoxooctadecahydro-1H,5H,14H,19H-pyrido[2,1-i]dipyrrolo[2,1-c:2′,1′-l][1]oxa[4,7,10,13]tetraazacyclo-hexadecin-20-yl)propanamide] ({NH(1-Me-indolin-5-yl)-CO}-[Phe(3,5-F2)][aThr]P[Pip]A[Pro(4R-Me)]; ester 2-C) | 0.078 (≈ 0.0662 µg/mL) |  |  | 6.9 ± 0.3 |  | 0.156 (≈ 0.132 µg/mL) | 0.078 (≈ 0.0662 µg/mL) | 0.156 (≈ 0.132 µg/mL)
C[C@@H]1C[C@H]2C(=O)O[C@@H](C)[C@H](NC(=O)[C@H](Cc3cc(F)cc(F)c3)NC(=O)Nc3ccc(Cl)cc3F)C(=O)N3CCC[C@H]3C(=O)N(C)C([C@@H](C)O)C(=O)N[C@@H](C)C(=O)N2C1 (stereo partly drawn) [Compound 313, (S)-2-(3-(4-chloro-2-fluorophenyl)ureido)-3-(3,5-difluorophenyl)-N-((2R,6S,9R,11aS,17S,18S,20aS)-9-((R)-1-hydroxyethyl)-2,6,10,18-tetramethyl-5,8,11,16,20-pentaoxohexadecahydro-1H,5H,16H-dipyrrolo[2,1-c:2′,1′-l][1]oxa[4,7,10,13]tetraazacyclohexadecin-17-yl)propanamide] ({NH(4-Cl-2-F-phenyl)-CO}-[Phe(3,5-F2)][aThr]P[ξNMeThr]A[Pro(4R-Me)]; ester 2-C) | < 0.02 | < 0.02 | < 0.02 | 7.3 ± 0.5 | < 0.02 |  |  | 
